The values that follow come from ChEMBL document CHEMBL5244280, “Evodiamine Lowers Blood Lipids by Up-Regulating the PPARγ/ABCG1 Pathway in High-Fat-Diet-Fed Mice” (J Nat Prod, 2021).

Activity calls are given as the source filed them. The rule behind the calls is not given here.

One may read the inhibition in vivo as the percentage by which the read-out fell short of the control.

Data set [1] has as its target T1, Peroxisome proliferator-activated receptor gamma (Homo sapiens) (UniProt P37231).
T1 sequence (whole entry): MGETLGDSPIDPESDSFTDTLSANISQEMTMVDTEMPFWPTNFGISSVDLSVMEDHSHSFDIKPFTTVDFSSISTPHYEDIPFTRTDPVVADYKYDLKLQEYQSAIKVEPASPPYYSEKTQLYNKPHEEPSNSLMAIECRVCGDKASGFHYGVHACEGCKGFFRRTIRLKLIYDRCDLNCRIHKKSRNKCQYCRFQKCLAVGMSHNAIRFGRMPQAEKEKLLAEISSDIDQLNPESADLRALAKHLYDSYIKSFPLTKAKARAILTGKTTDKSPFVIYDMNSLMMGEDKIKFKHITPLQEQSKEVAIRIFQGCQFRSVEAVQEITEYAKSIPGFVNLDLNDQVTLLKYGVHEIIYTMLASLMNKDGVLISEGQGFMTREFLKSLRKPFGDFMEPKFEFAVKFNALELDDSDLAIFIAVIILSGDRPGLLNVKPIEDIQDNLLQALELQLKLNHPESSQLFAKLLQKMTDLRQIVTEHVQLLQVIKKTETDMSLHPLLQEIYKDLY
In words: Agonist activity at human PPAR-gamma expressed in HEK293 cells co-transfected with luciferase reporter plasmid assessed as receptor transactivation at 10 uM incubated for 18 hrs by luciferase reporter gene assay relative to control. The data set is classed as cell-based. (Reporter assays use an easily measured gene product as a stand-in for the process of interest.)

Data set [2] concerns Mus musculus. In words: Protection against hyperlipidemia in high fat diet-fed hyperlipidemic ICR mouse model assessed as serum HDL-C content at 20 mg/kg, ig administered daily via gavage for 8 weeks by spectrophotometric analysis. The data set is classed as functional, organism-based.
Data set [3] concerns Mus musculus. In words: Upregulation of ABCA1 mRNA expression in liver of high fat diet fed hyperlipidemic ICR mouse model at 10 mg/kg, ig administered daily via gavage for 8 weeks by qPCR analysis. The data set is classed as functional, organism-based. (In general: In qPCR the cycle at which signal appears reflects the starting amount.)
A short description of data set [4]: Toxicity in normal diet fed ICR mouse assessed as ratio of lung weight to body weight at 10 mg/kg, ig administered daily via gavage for 8 weeks (reference value: 0.83 +/-0.32). Format: organism-based. The following applies: in vivo, po, 1344 h.
Data set [5] has as its target T2, Retinoic acid receptor RXR-alpha (Homo sapiens) (UniProt P19793).
T2 sequence (whole entry): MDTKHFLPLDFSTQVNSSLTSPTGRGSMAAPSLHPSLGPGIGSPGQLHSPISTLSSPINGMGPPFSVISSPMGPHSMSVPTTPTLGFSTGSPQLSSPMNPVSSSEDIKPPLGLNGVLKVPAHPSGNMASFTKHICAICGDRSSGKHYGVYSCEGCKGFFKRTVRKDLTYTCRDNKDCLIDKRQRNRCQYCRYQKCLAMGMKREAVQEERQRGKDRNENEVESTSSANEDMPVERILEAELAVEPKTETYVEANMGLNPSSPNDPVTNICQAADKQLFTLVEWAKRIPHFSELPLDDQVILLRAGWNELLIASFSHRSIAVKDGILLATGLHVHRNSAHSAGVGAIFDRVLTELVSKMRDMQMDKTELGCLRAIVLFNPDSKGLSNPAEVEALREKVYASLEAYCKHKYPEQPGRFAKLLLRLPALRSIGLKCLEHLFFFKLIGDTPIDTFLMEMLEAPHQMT
In words: Agonist activity at human RXR-alpha expressed in HEK293 cells co-transfected with luciferase reporter plasmid assessed as receptor transactivation at 10 uM incubated for 18 hrs by luciferase reporter gene assay relative to control. Format: cell-based.

The test system of data set [6] is Mus musculus. In words: Effect on food intake in high fat diet-fed hyperlipidemic ICR mouse model at 10 mg/kg, ig administered daily via gavage for 8 weeks. The data set is classed as functional, organism-based.
Data set [7] can be described thus: Toxicity in normal diet fed ICR mouse assessed as ratio of stomach weight to body weight at 10 mg/kg, ig administered daily via gavage for 8 weeks (reference value: 1.24 +/-0.41). Format: organism-based. Conditions: in vivo, po, 1344 h.
In data set [8] the test system is Mus musculus. In words: Protection against hyperlipidemia in high fat diet-fed hyperlipidemic ICR mouse model assessed as reduction in serum total cholesterol content at 20 mg/kg, ig administered daily via gavage for 8 weeks by spectrophotometric analysis. The data set is classed as functional, organism-based.
Data set [9] has as its system Mus musculus. In words: Protection against hyperlipidemia in high fat diet-fed hyperlipidemic ICR mouse model assessed as reduction in serum triglyceride content at 20 mg/kg, ig administered daily via gavage for 8 weeks by spectrophotometric analysis. Format: functional, organism-based.
The test system of data set [10] is Mus musculus. In words: Protection against hyperlipidemia in high fat diet-fed hyperlipidemic ICR mouse model assessed as reduction in serum total cholesterol content at 10 mg/kg, ig administered daily via gavage for 8 weeks by spectrophotometric analysis. Format: functional. Conditions: po, 1344 h.
Data set [11] deals with Mus musculus. In words: Protection against hyperlipidemia in high fat diet-fed hyperlipidemic ICR mouse model assessed as reduction in serum triglyceride content at 10 mg/kg, ig administered daily via gavage for 8 weeks by spectrophotometric analysis. Format: functional. The following applies: po, 1344 h.
Data set [12] is described as follows: Toxicity in normal diet fed ICR mouse assessed as effect on food intake at 10 mg/kg, ig administered daily via gavage for 8 weeks. The following applies: in vivo, po, 1344 h. Format: organism-based.
The subject of data set [13] is Mus musculus. In words: Upregulation of ABCG1 mRNA expression in liver of high fat diet fed hyperlipidemic ICR mouse model at 10 mg/kg, ig administered daily via gavage for 8 weeks by qPCR analysis relative to control. The data set is classed as functional.
Data set [14] in a line: Toxicity in high fat diet fed hyperlipidemic ICR mouse model assessed as ratio of kidney weight to body weight at 10 mg/kg, ig administered daily via gavage for 8 weeks (reference value: 1.34 +/-0.09). Conditions: in vivo, po, 1344 h. The data set is classed as organism-based.
A short description of data set [15]: Toxicity in normal diet fed ICR mouse assessed as ratio of heart weight to body weight at 10 mg/kg, ig administered daily via gavage for 8 weeks (reference value: 0.46 +/-0.03). The data set is classed as organism-based. Conditions: in vivo, po, 1344 h.
Data set [16] is described as follows: Toxicity in normal diet fed ICR mouse assessed as body weight loss at 10 mg/kg, ig administered daily via gavage for 8 weeks. The data set is classed as organism-based. Conditions: in vivo, po, 1344 h.
Data set [17] in a line: Toxicity in high fat diet fed hyperlipidemic ICR mouse model assessed as ratio of heart weight to body weight at 10 mg/kg, ig administered daily via gavage for 8 weeks (reference value: 0.48 +/-0.03). Conditions: in vivo, po, 1344 h. The data set is classed as organism-based.
Data set [18] concerns Mus musculus. In words: Upregulation of ABCG1 protein expression in liver of high fat diet fed hyperlipidemic ICR mouse model at 10 mg/kg, ig administered daily via gavage for 8 weeks by western blotting analysis. Format: functional, organism-based. (In general: A western blot detects proteins with antibodies after separation by electrophoresis.)
For data set [19], the system named is Mus musculus. In words: Protection against hyperlipidemia in high fat diet-fed hyperlipidemic ICR mouse model assessed as reduction in hepatic total cholesterol content at 10 mg/kg, ig administered daily via gavage for 8 weeks by colorimetric assay. The data set is classed as functional. Conditions: po, 1344 h.
In data set [20] the test system is Mus musculus. In words: Upregulation of SR-B1 mRNA expression in liver of high fat diet fed hyperlipidemic ICR mouse model at 10 mg/kg, ig administered daily via gavage for 8 weeks by qPCR analysis. The data set is classed as functional, organism-based.
For data set [21], the system named is Mus musculus. In words: Protection against hyperlipidemia in high fat diet-fed hyperlipidemic ICR mouse model assessed as reduction in hepatic total cholesterol content at 20 mg/kg, ig administered daily via gavage for 8 weeks by colorimetric assay. Format: functional, organism-based.
A short description of data set [22]: Toxicity in normal diet fed ICR mouse assessed as liver morphological changes at 10 mg/kg, ig administered daily via gavage for 8 weeks. Format: organism-based. The following applies: in vivo, po, 1344 h.
The nature of data set [23]: Toxicity against normal diet-fed ICR mouse assessed as effect on plasma total cholesterol content at 10 mg/kg, ig administered daily via gavage for 8 weeks by spectrophotometric analysis. The data set is classed as organism-based. Conditions: in vivo, po, 1344 h.
The nature of data set [24]: Toxicity against normal diet-fed ICR mouse assessed as effect on plasma HDL-C content at 10 mg/kg, ig administered daily via gavage for 8 weeks by spectrophotometric analysis. The data set is classed as organism-based. The following applies: in vivo, po, 1344 h.

Regarding `CN1c2ccccc2C(=O)N2CCc3c([nH]c4ccccc34)C21` (centres undefined), the values for the fold change (FC) (in data set [1]; in data set [5]; in the data set on Mus musculus [13]) were 0.49, 1.04 and 3.6, respectively. Further, the result with Mus musculus [2], with Mus musculus [3], in the data set with Mus musculus [6] and in the data set with Mus musculus [20] was inactive. Moreover, the Ratio came to 0.78 in [4]; 1.48 in data set [7]; 1.29 in [14]; 0.49 in data set [15]; 0.48 in data set [17]. Besides, the outcome in the data set on Mus musculus [8], with Mus musculus [9], in the data set on Mus musculus [18] and in the data set with Mus musculus [21] was Active. Besides, the results for the inhibition in vivo at 10 mg/kg in the data set with Mus musculus [10], with Mus musculus [11] and in the data set with Mus musculus [19] were 50%, 34% and 42.3%, respectively. Also, the Activity entry is given as “Non-Toxic” in [12]; “Toxic” in [16]; “Non-Toxic” in [22]; “Non-Toxic” in data set [23]; “Non-Toxic” in data set [24].
